Target: T1, MeCP2-TBL1 interaction (MeCP2-SmBiT / TBL1-LgBiT) (Mus musculus, UniProt Q9QXE7)
T1 construct: expressed in transfected cells; crude lysate used as a cell-free assay
T1 sequence (Q9QXE7 166-527): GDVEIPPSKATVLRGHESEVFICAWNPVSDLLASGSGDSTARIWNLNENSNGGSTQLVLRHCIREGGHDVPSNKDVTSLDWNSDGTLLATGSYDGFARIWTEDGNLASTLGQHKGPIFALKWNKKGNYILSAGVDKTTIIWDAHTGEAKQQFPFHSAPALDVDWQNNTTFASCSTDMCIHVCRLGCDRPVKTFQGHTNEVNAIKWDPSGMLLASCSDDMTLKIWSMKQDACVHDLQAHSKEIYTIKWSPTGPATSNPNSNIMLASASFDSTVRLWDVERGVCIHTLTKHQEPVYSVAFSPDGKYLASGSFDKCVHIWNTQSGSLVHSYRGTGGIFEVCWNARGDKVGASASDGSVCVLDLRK
Assay: MeCP2-TBL1 NanoLuc luciferase complementation assay (cell-free, extracts of transfected HEK293 cells);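 note: each compound tested at 20 µM final concentration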
Format: binding, human
Method in brief: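 Cell-free split NanoLuc: lysate of HEK293 cells co-expressing the MeCP2 C-terminal half-SmBiT and TBL1 WD domain-LgBiT, mixed 1:1 with furimazine. After 30 min at room temperature, luminescence was plate-median normalized.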

[1] = primary screen of Asinex library, single well per compound
[2] = primary screen of the Asinex library, sheet "Sargen output Asinex library", one well per compound
[3] = primary screen of the Asinex library, sheet "Sargen output Asinex library", one well per compound, Batch Ref. 1

Inhibition percent [2] [%]	Inhibition percent [3] [%]	SMILES	further results
		O=C(c1ccccc1Cn1ccnc1)N1CCOCC2(C1)CN(c1ccc(Cl)cc1)C(=O)O2 (stereo not drawn) [BDH_32374184]	Inhibition percent [1]: 1.12
-4.02		Cn1ccc(C(=O)Nc2ccccc2C(=O)N2CCC3(CN(Cc4ccccc4)C(=O)O3)C2)n1 (stereo not drawn) [BDH_32374198]	
	0.40	CN1C(=O)C2(CCN(C(=O)C3(c4ccccc4)CCOCC3)CC2)CC1Cc1ccccc1 (stereo not drawn) [BDH_32374590]	
	-1.59	C[C@]12C[C@@H](Cc3ccccc3)N(C(=O)c3cccc(CN4CCCC4=O)c3)[C@H]1CCCC(=O)N2 [BDH_32374892]	
-4.50		COCC(=O)N1CCC(C)(C(=O)N2CCC[C@]3(C[C@@H](Oc4cccc(F)c4)CO3)C2)CC1 [BDH_32375031]	
3.55		C[C@@]12C[C@H]3[C@H](Cc4ccccc4)N[C@@H]1CCCC[C@@H]2N3C(=O)c1ccnc(Cc2ccccc2)c1 [BDH_33392602]	
		O=C(COc1ncnc2ccccc12)N1CCC[C@@]2(C[C@@H](Oc3ccc(F)c(Cl)c3)CO2)C1 [BDH_33516387]	Inhibition percent [1]: 6.08
6.38		COc1cccc(-c2cc(C(=O)N3CCC[C@@]4(C[C@@H](Oc5cccc(Cl)c5)CO4)C3)[nH]n2)c1 [BDH_33516566]	
	-0.88	CC(C)CN1C(=O)C2(CCN(C(=O)Cn3cccnc3=O)CC2)CC1Cc1ccc(F)cc1 (stereo not drawn) [BDH_33517008]	
4.74		O=C(c1cc(-c2cccc(F)c2)no1)N1CCC[C@@]2(C[C@@H](Oc3ccccc3F)CO2)C1 [BDH_33517958]	
-0.37		COc1ccc([C@H]2CN(C)[C@@H]3CCN(C(=O)c4ccnc(Cc5ccccc5OC)c4)C[C@H]23)cc1 [BDH_33520255]	
	-3.44	COc1ccccc1Cc1ccc(C(=O)N2CCCC2c2cncc(-c3nccn3C)n2)cn1 (stereo not drawn) [BDH_33521295]	
-4.74		COc1ccccc1Cc1ccc(C(=O)N2CCCC2c2cncc(-c3nc(C)c[nH]3)n2)cn1 (stereo not drawn) [BDH_33521296]	
	0.21	COc1ccccc1Cc1ccc(C(=O)N2CCC(c3cccc(-c4cncn4C)n3)CC2)cn1 [BDH_33521315]	
-1.25		COc1ccccc1Cc1ccc(C(=O)N2CCCC2c2cccc(-c3cncn3C)n2)cn1 (stereo not drawn) [BDH_33521317]	
	-0.09	CNC(=O)c1cnn2c(C3CCCN(C(=O)c4ccnc(Cc5cccc(F)c5)c4)C3)ccnc12 (stereo not drawn) [BDH_33521351]	
		Cc1c[nH]c(-c2nccnc2CC2CCCN(C(=O)c3ccnc(Cc4cccc(F)c4)c3)C2)n1 (stereo not drawn) [BDH_33521378]	Inhibition percent [1]: -5.26
-2.90		Cc1c[nH]c(-c2cncc(C3CCCN(C(=O)c4ccnc(Cc5cccc(F)c5)c4)C3)n2)n1 (stereo not drawn) [BDH_33521385]	
	-2.61	Cn1ccnc1-c1nccnc1C1CCN(C(=O)c2ccnc(Cc3cccc(F)c3)c2)CC1 [BDH_33521386]	
-0.17		NC(=O)c1cc(CC2CCCN(C(=O)c3ccnc(Cc4ccccc4)c3)CC2)ncn1 (stereo not drawn) [BDH_33521416]	

Inhibition percent [2] [%]	Inhibition percent [3] [%]	SMILES	further results
	-0.87	NC(=O)c1cnn2c(C3CCCCN3C(=O)c3ccnc(Cc4ccccc4)c3)ccnc12 (stereo not drawn) [BDH_33521422]	
	-0.23	CNC(=O)c1cnn2c(C3CCCCN3C(=O)c3ccnc(Cc4ccccc4F)c3)ccnc12 (stereo not drawn) [BDH_33521663]	
	0.97	O=C(c1ccnc(Cc2ccccc2F)c1)N1CCC(Cc2nccnc2-c2ncc[nH]2)CC1 [BDH_33521693]	
	0.73	Cc1c[nH]c(-c2cncc(CC3CCN(C(=O)c4ccc(Cc5ccccc5F)nc4)CC3)n2)n1 [BDH_33521764]	
	0.17	COc1ccccc1Cc1cc(C(=O)N2CCCC2c2cncc(-c3nc(C)c[nH]3)n2)ccn1 (stereo not drawn) [BDH_33522145]	
	6.35	COc1ccccc1Cc1cc(C(=O)N2CCC(c3nccnc3-c3nc(C)c[nH]3)CC2)ccn1 [BDH_33522161]	
	2.32	COc1cccc(N2CCC(O)(CN3C[C@@H](c4cccc(F)c4)[C@@]4(CCCC(=O)N4)C3)CC2)c1 [BDH_33611042]	
1.71		COc1ccc([C@@H]2C[C@]3(C)NC(=O)CCC[C@@H]3N2CC2(O)CCN(c3cccc(OC)c3)CC2)cc1 [BDH_33611075]	
	-0.28	COc1ccc(N2CCN(CC3(O)CCN(c4cccc(C)c4)CC3)C(C(N)=O)C2)cc1 (stereo not drawn) [BDH_33612322]	
		COc1cccc([C@@H]2C[C@]3(C)NC(=O)CCCC[C@@H]3N2CC(=O)Nc2ccc(N3CCCC3)cc2)c1 [BDH_33614614]	Inhibition percent [1]: -1.03
1.72		COc1ccc([C@@H]2[C@H]3CCCC[C@@]3(O)CCN2CC(=O)Nc2ccc(N3CCOCC3)cc2)cc1 [BDH_33614948]	
-1.75		COc1cccc([C@@H]2C[C@]3(C)NC(=O)CCCC[C@@H]3N2CC(=O)Nc2ccc3[nH]c(=O)[nH]c3c2)c1 [BDH_33615500]	
-1.45		CC(=O)N[C@@H]1C[C@@H](C(=O)N(C)C)N(CC(=O)Nc2ccc3[nH]c(=O)[nH]c3c2)[C@H]1c1ccccc1 [BDH_33615574]	
	0.09	COc1cccc([C@@H]2C[C@]3(C)NC(=O)CCCC[C@@H]3N2CC(=O)NCCc2nc3ccccc3[nH]2)c1 [BDH_33615965]	
-1.86		CC(=O)N1CCN(CC(=O)NCCc2nc3ccccc3[nH]2)CC1c1ccc(C(F)(F)F)cc1 (stereo not drawn) [BDH_33616082]	
-2.04		C[C@]12C[C@@H](Cc3ccccc3)N(CC(=O)NCCc3nc4ccccc4[nH]3)[C@H]1CCCC(=O)N2 [BDH_33616100]	
	1.14	CC(=O)N[C@@]12CN(CC(=O)Nc3ccc4nc(C)[nH]c4c3)CC[C@@H]1[C@@H](c1ccccc1)N(C(C)=O)C2 [BDH_33616134]	
		Cc1nc2ccc(NC(=O)CN3C[C@@H](c4cc(F)cc(F)c4)[C@@]4(CCCCC(=O)N4)C3)cc2[nH]1 [BDH_33616136]	Inhibition percent [1]: -1.00
	6.38	Cc1nc2ccc(NC(=O)CN3CC[C@@]4(C)[C@@H]3CCCCC(=O)N4Cc3ccc(F)cc3)cc2[nH]1 [BDH_33616216]	
-1.15		CC(=O)N[C@H]1C[C@@H](C(=O)N(C)C)N(CC(=O)Nc2cccc(C(F)(F)F)c2)[C@H]1c1ccccc1 [BDH_33616368]	

Inhibition percent [2] [%]	Inhibition percent [3] [%]	SMILES	further results
-0.29		CC(=O)N[C@@]12CN(CC(=O)Nc3cccc(C(F)(F)F)c3)CC[C@@H]1[C@@H](c1ccccc1)N(C)C2 [BDH_33616433]	
	6.90	C[C@]12C[C@@H](Cc3ccccc3)N(CC(=O)Nc3cccc(C(F)(F)F)c3)[C@H]1CCCC(=O)N2 [BDH_33616434]	
		Cc1n[nH]c(C)c1NC(=O)CN1C[C@@H](c2cc(F)cc(F)c2)[C@@]2(CCCCC(=O)N2)C1 [BDH_33616713]	Inhibition percent [1]: -0.00541
-2.26		NC(=O)C1CN(Cc2ccccc2)CCN1CC(=O)Nc1ccccc1C(F)(F)F (stereo not drawn) [BDH_33617130]	
		C[C@]12C[C@@H](c3ccccc3)N(CC(=O)Nc3ccc4c(c3)OCCO4)[C@H]1CCCCCN2 [BDH_33617257]	Inhibition percent [1]: -2.26
		CC(=O)N[C@H]1C[C@@H](C(=O)N(C)C)N(CC(=O)Nc2ccc3c(c2)OCCO3)[C@H]1c1ccccc1 [BDH_33617336]	Inhibition percent [1]: -1.52
-1.20		CC(=O)N[C@@]12CN(C)CC[C@@H]1[C@@H](c1ccccc1)N(CC(=O)Nc1ccc3c(c1)OCCO3)C2 [BDH_33617398]	
-0.000394		CCn1c(=O)oc2cc(NC(=O)CN3C[C@]4(NC(C)=O)CN(C)CC[C@@H]4[C@H]3c3ccccc3)ccc21 [BDH_33617644]	
1.66		COc1cccc([C@@H]2C[C@]3(C)NC(=O)CCCC[C@@H]3N2CC(=O)Nc2ccc3c(c2)nc(C)n3C)c1 [BDH_33617989]	
	1.15	Cc1nc2cc(NC(=O)CN3C[C@@H](c4cc(F)cc(F)c4)[C@@]4(CCCCC(=O)N4)C3)ccc2n1C [BDH_33617993]	
	4.04	CC(=O)N[C@@]12CN(C)CC[C@@H]1[C@@H](c1ccccc1)N(CC(=O)Nc1ccc3c(c1)nc(C)n3C)C2 [BDH_33618117]	
	4.89	COc1ccc([C@@H]2C[C@]3(C)NC(=O)CCC[C@@H]3N2CC(=O)Nc2ccc3c(c2)nc(C)n3C)cc1 [BDH_33618124]	
	1.43	COc1ccc(C)c(NC(=O)CN2CC[C@@]3(NC(C)=O)CN(C(C)=O)[C@H](c4ccccc4)[C@H]3C2)c1 [BDH_33618460]	
-3.37		COc1ccc(C)c(NC(=O)CN2CC[C@@H]3[C@@H](c4ccccc4)N(C(C)=O)C[C@]3(NC(C)=O)C2)c1 [BDH_33618463]	
4.29		O=C(CN1C[C@@H](c2cc(F)cc(F)c2)[C@@]2(CCCCC(=O)N2)C1)Nc1ccnn1C1CCCC1 [BDH_33619464]	
		COc1cccc([C@@H]2C[C@]3(C)NC(=O)CCCC[C@@H]3N2CC(=O)Nc2cc(C)ccc2F)c1 [BDH_33619764]	Inhibition percent [1]: -0.65
		CC(=O)N[C@@]12CCN(CC(=O)Nc3cc(C)ccc3F)C[C@@H]1[C@@H](c1ccccc1)N(C(C)=O)C2 [BDH_33619766]	Inhibition percent [1]: -3.87
-1.76		CC(=O)N[C@@]12CN(CC(=O)Nc3cc(C)ccc3F)CC[C@@H]1[C@@H](c1ccccc1)N(C(C)=O)C2 [BDH_33619769]	
	-0.19	CC(=O)N[C@H]1C[C@@H](C(=O)N(C)C)N(CC(=O)Nc2cccc3c2CCCC3)[C@H]1c1ccccc1 [BDH_33619991]	
		COc1cccc([C@@H]2C[C@]3(C)NC(=O)CCCC[C@@H]3N2CC(=O)Nc2ccn(C)n2)c1 [BDH_33620384]	Inhibition percent [1]: -2.63

Reference: paper PMC9995496, “A screen for MeCP2-TBL1 interaction inhibitors using a luminescence-based assay” (Scientific Reports, 2023)
